Data published in publication PMC4153544, “Antidiabetic Property of Symplocos cochinchinensis Is Mediated by Inhibition of Alpha Glucosidase and Enhanced Insulin Sensitivity” (PLoS ONE, 2014).
In brackets after ≈: the same amount, converted by molar mass.

Target: T1, rat intestinal alpha glucosidase
T1 construct: gene Si; rat intestinal alpha-glucosidase preparation
Assay: alpha-glucosidase inhibition assay
Format: biochemical
Settings: standard; rat intestinal enzyme

- IC50: 49.78 ± 1.45 µg/mL (≈ 77.1 µM)
SMILES: C[C@H]1O[C@H](O[C@H]2[C@H](O)[C@@H](O)[C@@H](O[C@H]3[C@H](O)[C@@H](O)C(O)O[C@@H]3CO)O[C@@H]2CO)[C@H](O)[C@@H](O)[C@@H]1N[C@H]1C=C(CO)[C@@H](O)[C@H](O)[C@H]1O (stereo partly shown) [acarbose]
